US11965894B2, “Method of diagnosis of drug induced liver injury” (BIOPREDICTIVE, priority 2017, dated 2024)

Assays:
[1] = healthy volunteers receiving the drug, ref [13]; cited from earlier work
[2] = FibroTest and ActiTest scores in DILI cases; format: in vivo, human; settings: for FibroTest: single followed DILI case
Description: The Fibrotest® combines five markers: alpha2-macroglobulin, haptoglobin, apolipoprotein A2, total bilirubin and gamma-glutamyl transpeptidase (GGT), and adjusts with sex and age. […] It is performed in vitro on a biological sample (blood or serum) that has been harvested from a patient.
The ActiTest is calculated using an original combination of six highly concentrated biochemical markers, which are easy to assess. The ActiTest offers a non invasive alternative for measuring necro inflammatory activity in patients with chronic hepatitis C or B. The ActiTest combines alpha2-macroglobulin, haptoglobin, apolipoprotein A1, total bilirubin, GGT, and ALT, parameters adjusted for patient's age and gender.

[3] = Serum miR-122 by LNA-based relative quantitative PCR in DILI cases; format: in vivo, human
Description: Total RNA, including miRNA was extracted from 200 μl of serum, using a commercial column-based system (Exiqon, Denmark) following the manufacturer's instructions. RNA synthetic control templates (Exiqon, Denmark) were introduced to provide controls for the quality of the RNA isolation. Serum levels of miR-122 and nine endogenous miRNAs as potential candidates for reference miRNAs were assayed using the Locked Nucleic Acid (LNA™)-based miRNA relative quantitative PCR with a SYBR® Green detection. cDNA synthesis and real time PCR were performed using the miRCURY LNA™ Universal RT cDNA Synthesis Kit (Exiqon, Denmark) and miRCURY LNA™ Universal RT microRNA PCR system (Exiqon), respectively. Two additional RNA spike-ins were also introduced to provide controls for the cDNA synthesis reaction and the PCR. Quantitative PCR was done on the LightCycler® 480 (Roche Applied Science) according to the manufacturer's instructions. The amplification curves were analyzed using the Roche LC software, both for the determination of cycle threshold (Ct) and for melting curve analysis. Ct values were then processed using the analysis software GenEx® (MultiD Analysis AB). […] Ct values for miR-122 were normalized with Ct value of miR-23a-3p. Levels of serum miR-122 were expressed in relative quantities calculated by the equation 2^−ΔCt.

[4] = in vivo
Description: Measures of biochemical markers were performed accordingly to the art, and analyses of ActiTest® and FibroTest® were made as described in the art and in WO 2002/016949.
Comparisons between medians (95% confidence interval [CI]) used the Mann-Whitney test with Bonferroni correction, and the Tukey-Kramer multiple comparison procedure for analyses of variance of the three repeated measures. Correlation between test values was estimated using the Pearson coefficient, expressed with a 95% CI; according to the number of comparisons, only a P value <0.01 was considered significant. NCSS-9 software was used.

[5] = DILI cases attributed to the drug, at inclusion

In the case of CC(=O)Nc1ccc(O)cc1 [APAP, acetaminophen], the “ApoA1 regulation in ALT responders compared with ALT non-responders” value [1] is listed as “three-fold down-regulation”, the ActiTest median [2, 5] is listed as 0.99 and the “FibroTest” value ([2]; at 8-12 weeks) is listed as 0.53. The “FibroTest” value ([2]; one month later) was 0.47, the “miR-122 compared with MTX cases” value ([3]; DILI cases, at baseline) was “significantly lower” and the “miR-122 (lowest)” value ([3]; single DILI case with severe malnutrition) was −0.8.

For CCOC(=O)Nc1ccc(NCc2ccc(F)cc2)nc1N [flupirtine], the “ApoA1 compared with normal ranges observed with methotrexate and others” value [4] was “dramatic decrease”, the “ApoA1 evolution compared with HAPTO” value [4] was “much quicker normalization” and the ApoA1 median [4] was 0.27 g/L. The “BILI compared with normal ranges observed with methotrexate and others” value [4] was “dramatic increase”, the BILI median [4] was 335 µmol/L and the “HAPTO compared with normal ranges observed with methotrexate and others” value [4] was “dramatic decrease”. For the same molecule, the HAPTO median [4] was 0.10 g/L and the FibroTest median [2, 5] was 0.99.

In the case of CN(Cc1cnc2nc(N)nc(N)c2n1)c1ccc(C(=O)N[C@@H](CCC(=O)O)C(=O)O)cc1 [methotrexate], the “GGT dynamics compared with other drugs” value [4] is reported as “no decrease”, the “FibroTest” value ([2]; 877 days later) is reported as 0.52 and the “FibroTest” value ([2]; at 8-12 weeks) is reported as 0.51. It also gave a miR-122 median ([3]; serum, DILI cases attributed to the drug, at inclusion, relative quantities normalized with miR-23a-3p) of 7.54.

In the case of CCN1CCN(C(=O)N[C@@H](C(=O)N[C@@H]2C(=O)N3[C@@H]2SC(C)(C)[C@@H]3C(=O)O)c2ccccc2)C(=O)C1=O [piperacillin, piperacillin-tazobactam], the GGT median [4] is reported as 678 IU/L.
